Patent US20100291009A1, “PREPARATION COMPRISING CHROMAN-2-ONE DERIVATIVES” (Merck Patent Gesellschaft Mit Beschrankter Haftung, priority 2008, published 2010)

Each compound was assayed against tyrosinase from fungi (assay: Tyrosinase assay (L-DOPA as substrate)). Conditions: tyrosinase from fungi (16U), phosphate buffer pH 6.8, 25° C., optical density at 470 nm.
Assay type: biochemical
Description: The action of the compounds I or Ia as skin lighteners is tested through their ability to inhibit the enzyme tyrosinase and thus to suppress melanin synthesis.
The inhibiting action of the compounds of the formula I or Ia against tyrosinase is assessed using tyrosinase from fungi and L-DOPA as substrate.
The compounds, as described in Examples 1 to 3 and the comparative compounds of Examples 10 and 11, and L-dopa are pre-incubated for 10 minutes at 25° C. in phosphate buffer (pH 6.8), and tyrosinase from fungi (16U) (Fluka) is subsequently added. The optical density of the samples is measured at 470 nm against a negative control (without active compound). Kojic acid is likewise tested as tyrosinase reference, i.e. positive control.
The results are shown in the following table, expressed in the IC50 value (the concentration of the test compound at which 50% of the tyrosinase activity is inhibited).

IC50 (concentration of the test compound at which 50% of the tyrosinase activity is inhibited) | SMILES
No inhibition | Cc1cc(O)c(C)c2c1OC(=O)CC2(C)C [Example 10, 6-hydroxy-4,4,5,8-tetramethylchroman-2-one]
No inhibition | Cc1c(C)c2c(c(C)c1O)C(C)(C)CC(=O)O2 [Example 11, 6-hydroxy-4,4,5,7,8-pentamethylchroman-2-one]

Same assay, conditions: tyrosinase from fungi (16U), phosphate buffer pH 6.8, 25° C., optical density at 470 nm, read-out: IC50 (concentration of the test compound at which 50% of the tyrosinase activity is inhibited)

IC50 [µM] | SMILES
336 | CCc1cc2c(cc1O)OC(=O)CC2 [6-Ethyl-7-hydroxychroman-2-one, 6-ethyl-7-hydroxychroman-2-one]
25 | CCCCCCc1cc2c(cc1O)OC(=O)CC2 [6-Hexyl-7-hydroxychroman-2-one, 6-hexyl-7-hydroxychroman-2-one]
1000 | O=C1CCc2ccc(O)cc2O1 [7-Hydroxychroman-2-one, 7-hydroxychroman-2-one]

SMILES | IC50 [µM]
O=c1cc(CO)occ1O [Kojic acid] | 12
